From patent US7816522B2, “Triazolone derivatives” (Eisai Co., Ltd., priority 2006, dated 2010)
Where a name gives a salt, the structure may show the parent alone.

Target: T1, human clotting factor VIIa (Homo sapiens, UniProt P08709)
T1 construct: a human clotting factor VIIa (hereinafter, “Factor VIIa”) purified sample; purchased Enzyme Research Laboratories HFVIIa
Experiment: Inhibitory activity against clotting factor VIIa (chromogenic substrate Spectrozyme FVIIa, TF/Factor VIIa enzyme solution)
Format: biochemical
Conditions: human Factor VIIa 5 nmol/L with human TF 10 nmol/L, room temperature 40 minutes, 405 nm
Summary of the method: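 Human Factor VIIa (5 nmol/L) with human TF (10 nmol/L) in Tris-BSA buffer pH 7.4 containing 15 mmol/L CaCl2 and cephalin, with Spectrozyme FVIIa substrate. Reaction 40 min at room temperature; 4-nitroanilide read at 405 nm. IC50 by non-linear regression over 100 μmol/L–0.1 nmol/L.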

T1 sequence (P08709 213-466 limits assumed): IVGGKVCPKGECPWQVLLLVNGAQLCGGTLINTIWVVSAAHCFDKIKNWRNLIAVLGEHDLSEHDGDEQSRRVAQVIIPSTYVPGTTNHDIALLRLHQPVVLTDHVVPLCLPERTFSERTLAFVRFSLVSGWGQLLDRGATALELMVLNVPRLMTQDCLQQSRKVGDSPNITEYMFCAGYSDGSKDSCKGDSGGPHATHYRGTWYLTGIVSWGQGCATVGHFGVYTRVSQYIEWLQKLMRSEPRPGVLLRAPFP
T1 sequence (P08709 61-212 limits assumed): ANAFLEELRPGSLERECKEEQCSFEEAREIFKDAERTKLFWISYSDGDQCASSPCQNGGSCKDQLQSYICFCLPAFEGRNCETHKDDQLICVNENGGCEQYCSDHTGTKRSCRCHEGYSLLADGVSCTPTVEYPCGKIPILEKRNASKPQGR
T1 sequence (P13726 33-295 partner): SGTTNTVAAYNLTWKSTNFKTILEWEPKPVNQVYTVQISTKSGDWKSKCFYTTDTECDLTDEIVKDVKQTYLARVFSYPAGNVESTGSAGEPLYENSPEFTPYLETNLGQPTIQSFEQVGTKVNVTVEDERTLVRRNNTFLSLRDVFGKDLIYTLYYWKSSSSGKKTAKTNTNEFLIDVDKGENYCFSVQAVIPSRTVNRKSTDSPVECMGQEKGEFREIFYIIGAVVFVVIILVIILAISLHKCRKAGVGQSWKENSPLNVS

IC50 [nM] | Structure (SMILES)
8.8 | CCc1cc(OCC#N)cc(C(Nc2ccc(C(=N)N)cc2)c2nn(-c3ncccn3)c(=O)[nH]2)c1 (stereo not drawn) [Example 77, 4-{[(3-cyanomethoxy-5-ethylphenyl)-(5-oxo-1-pyrimidin-2-yl-4,5-dihydro-1H-[1,2,4]triazol-3-yl)methyl]amino}benzamidine acetate]
24.8 | CCOc1cc(COC)cc(C(Nc2ccc(C(=N)N)cc2)c2nn(-c3ncccn3)c(=O)[nH]2)c1 (stereo not drawn) [Example 83, 4-{[(3-ethoxy-5-methoxymethylphenyl)-(5-oxo-1-pyrimidin-2-yl-4,5-dihydro-1H-[1,2,4]triazol-3-yl)methyl]amino}benzamidine acetate]
16.9 | CCOc1cc(CF)cc(C(Nc2ccc(C(=N)N)cc2)c2nn(-c3ncccn3)c(=O)[nH]2)c1 (stereo not drawn) [Example 84, 4-{[(3-ethoxy-5-fluoromethylphenyl)-(5-oxo-1-pyrimidin-2-yl-4,5-dihydro-1H-[1,2,4]triazol-3-yl)methyl]amino}benzamidine acetate]
51.7 | COc1cc(C(Nc2ccc(C(=N)N)cc2)c2nn(-c3ncccn3)c(=O)[nH]2)cc(OC)c1OC (stereo not drawn) [Example 86, 4-{[(5-oxo-1-pyrimidin-2-yl-4,5-dihydro-1H-[1,2,4]triazol-3-yl)-(3,4,5-trimethoxyphenyl)methyl]amino}benzamidine acetate]
4.2 | COCCOc1c(OC)cc(C(Nc2ccc(C(=N)N)cc2)c2nn(-c3ccccc3OC)c(=O)[nH]2)cc1OC (stereo not drawn) [Example 87, 4-({[3,5-dimethoxy-4-(2-methoxyethoxy)phenyl]-[1-(2-methoxyphenyl)-5-oxo-4,5-dihydro-1H-[1,2,4]triazol-3-yl]methyl}amino)benzamidine acetate]
66.6 | CCOc1cccc(C(Nc2ccc(C(=N)N)cc2)c2nn(-c3ncccn3)c(=O)[nH]2)c1 (stereo not drawn) [Example 90, 4-{[(3-ethoxyphenyl)-(5-oxo-1-pyrimidin-2-yl-4,5-dihydro-1H-[1,2,4]triazol-3-yl)methyl]amino}benzamidine acetate]
6.4 | COc1ccccc1-n1nc(C(Nc2ccc(C(=N)N)cc2)c2cc(C)cc(OCCF)c2F)[nH]c1=O (stereo not drawn) [Example 91, 4-({[2-fluoro-3-(2-fluoroethoxy)-5-methylphenyl]-[1-(2-methoxyphenyl)-5-oxo-4,5-dihydro-1H-[1,2,4]triazol-3-yl]methyl}amino)benzamidine trifluoroacetate]
31.7 | COc1cc(C(Nc2ccc(C(=N)N)cc2)c2nn(-c3ccccc3C(N)=O)c(=O)[nH]2)ccc1OCC(=O)N(C)C (stereo not drawn) [Example 105, 2-{3-[(4-carbamimidoyl-phenylamino)-(4-dimethylcarbamoylmethoxy-3-methoxyphenyl)methyl]-5-oxo-4,5-dihydro-1H-[1,2,4]triazol-1-yl}benzamide trifluoroacetate]
4.3 | COc1cc(F)c(C(Nc2ccc(C(=N)N)cc2)c2nn(-c3ccccc3N)c(=O)[nH]2)cc1OC (stereo not drawn) [Example 107, 4-({[1-(2-aminophenyl)-5-oxo-4,5-dihydro-1H-[1,2,4]triazol-3-yl]-(2-fluoro-4,5-dimethoxyphenyl)methyl}amino)benzamidine trifluoroacetate]
7.2 | COc1ccccc1-n1nc(C(Nc2ccc(C(=N)N)cc2)c2cc(C)c(OC)c(C)c2)[nH]c1=O (stereo not drawn) [Example 112, 4-({(4-methoxy-3,5-dimethylphenyl)-[1-(2-methoxyphenyl)-5-oxo-4,5-dihydro-1H-[1,2,4]triazol-3-yl]methyl}amino)benzamidine acetate]
22.8 | CCOc1cc(C(Nc2ccc(C(=N)N)cc2)c2nn(-c3ncccn3)c(=O)[nH]2)ccc1OCC#N (stereo not drawn) [Example 114, 4-{[(4-cyanomethoxy-3-ethoxyphenyl)-(5-oxo-1-pyrimidin-2-yl-4,5-dihydro-1H-[1,2,4]triazol-3-yl)methyl]amino}benzamidine trifluoroacetate]
10 | COc1cc(F)c(C(Nc2ccc(C(=N)N)cc2)c2nn(-c3ncccc3OC)c(=O)[nH]2)cc1OC (stereo not drawn) [Example 124, 4-({(2-fluoro-4,5-dimethoxyphenyl)-[1-(3-methoxypyridin-2-yl)-5-oxo-4,5-dihydro-1H-[1,2,4]triazol-3-yl]methyl}amino)benzamidine acetate]
10.3 | COc1cc(F)c(C(Nc2ccc(C(=N)N)cc2)c2nn(-c3ncccc3F)c(=O)[nH]2)cc1OC (stereo not drawn) [Example 125, 4-({(2-fluoro-4,5-dimethoxyphenyl)-[1-(3-fluoropyridin-2-yl)-5-oxo-4,5-dihydro-1H-[1,2,4]triazol-3-yl]methyl}amino)benzamidine acetate]
10.9 | CCOc1cc(C(Nc2ccc(C(=N)N)cc2)c2nn(-c3ncccc3OC)c(=O)[nH]2)ccc1OCC(=O)NC (stereo not drawn) [Example 126, 2-(4-{(4-carbamimidoylphenylamino)-[1-(3-methoxypyridin-2-yl)-5-oxo-4,5-dihydro-1H-[1,2,4]triazol-3-yl]methyl}-2-ethoxyphenoxy)-N-methyl-acetamide acetate]
9.3 | CCOc1cc(C(Nc2ccc(C(=N)N)cc2)c2nn(-c3ncccc3C)c(=O)[nH]2)ccc1OCC(=O)NC (stereo not drawn) [Example 127, 2-(4-{(4-carbamimidoylphenylamino)-[1-(3-methylpyridin-2-yl)-5-oxo-4,5-dihydro-1H-[1,2,4]triazol-3-yl]methyl}-2-ethoxyphenoxy)-N-methylacetamide acetate]
9.9 | CCOc1cc(C(Nc2ccc(C(=N)N)cc2)c2nn(-c3ncccc3C)c(=O)[nH]2)ccc1OCCOC (stereo not drawn) [Example 128, 4-({[3-ethoxy-4-(2-methoxyethoxy)phenyl]-[1-(3-methylpyridin-2-yl)-5-oxo-4,5-dihydro-1H-[1,2,4]triazol-3-yl]methyl}amino)benzamidine acetate]
11.7 | COc1cc(F)c(C(Nc2ccc(C(=N)N)cc2)c2nn(-c3ncccc3Br)c(=O)[nH]2)cc1OC (stereo not drawn) [Example 134, 4-({[1-(3-bromopyridin-2-yl)-5-oxo-4,5-dihydro-1H-[1,2,4]triazol-3-yl]-(2-fluoro-4,5-dimethoxyphenyl)methyl}amino)benzamidine acetate]
8.6 | CCc1cc(OCC(=O)N(C)C)c(F)c(C(Nc2ccc(C(=N)N)cc2)c2nn(-c3ccccc3NC(=O)OC)c(=O)[nH]2)c1 (stereo not drawn) [Example 135, (2-{3-[(4-carbamimidoylphenylamino)-(3-dimethylcarbamoylmethoxy-5-ethyl-2-fluorophenyl)methyl]-5-oxo-4,5-dihydro-1H-[1,2,4]triazol-1-yl}phenyl)carbamic acid methyl ester trifluoroacetate]
17 | COc1cc(F)c(C(Nc2ccc(C(=N)N)cc2)c2nn(-c3ncccc3N)c(=O)[nH]2)cc1OC (stereo not drawn) [Example 138, 4-({[1-(3-aminopyridin-2-yl)-5-oxo-4,5-dihydro-1H-[1,2,4]triazol-3-yl]-(2-fluoro-4,5-dimethoxyphenyl)methyl}amino)benzamidine trifluoroacetate]
3.8 | CCc1cc(OCCN(C)C)c(F)c(C(Nc2ccc(C(=N)N)cc2)c2nn(-c3ccccc3N)c(=O)[nH]2)c1 (stereo not drawn) [Example 139, 4-({[1-(2-aminophenyl)-5-oxo-4,5-dihydro-1H-[1,2,4]triazol-3-yl]-[3-(2-dimethylaminoethoxy)-5-ethyl-2-fluorophenyl]methyl}amino)benzamidine bistrifluoroacetate]
5.3 | CCc1cc(OCCN(C)C)c(F)c(C(Nc2ccc(C(=N)N)cc2)c2nn(-c3ccccn3)c(=O)[nH]2)c1 (stereo not drawn) [Example 140, 4-({[3-(2-dimethylaminoethoxy)-5-ethyl-2-fluorophenyl]-(5-oxo-1-pyridin-2-yl-4,5-dihydro-1H-[1,2,4]triazol-3-yl)methyl}amino)benzamidine bistrifluoroacetate]
5 | CCc1cc(OC(C)CN(C)C)c(F)c(C(Nc2ccc(C(=N)N)cc2)c2nn(-c3ccccn3)c(=O)[nH]2)c1 (stereo not drawn) [Example 141, 4-({[3-(2-dimethylamino-1-methylethoxy)-5-ethyl-2-fluorophenyl]-(5-oxo-1-pyridin-2-yl-4,5-dihydro-1H-[1,2,4]triazol-3-yl)methyl}amino)benzamidine bistrifluoroacetate]
4.7 | CCc1cc(OCC(C)(C)CN(C)C)c(F)c(C(Nc2ccc(C(=N)N)cc2)c2nn(-c3ccccc3C(=O)O)c(=O)[nH]2)c1 (stereo not drawn) [Example 142, 2-(3{(4-carbamimidoyl-phenylamino)-[3-(3-dimethylamino-2,2-dimethylpropoxy)-5-ethyl-2-fluorophenyl]methyl}-5-oxo-4,5-dihydro-1H-[1,2,4]triazol-1-yl}benzoic acid bistrifluoroacetate]
5.1 | COc1cc(C(Nc2ccc(C(=N)N)cc2)c2nn(-c3cccnn3)c(=O)[nH]2)cc2c1OCCCO2 (stereo not drawn) [Example 147, 4-{[(9-methoxy-3,4-dihydro-2H-benzo[b][1,4]dioxepin-7-yl)-(5-oxo-1-pyridazin-3-yl-4,5-dihydro-1H-[1,2,4]triazol-3-yl)methyl]amino}benzamidine acetate]
59.4 | COc1cc(F)c(C(Nc2ccc(C(=N)N)cc2)c2nn(-c3[nH]ncc3C(=O)O)c(=O)[nH]2)cc1OC (stereo not drawn) [Example 157, 5-{3-[(4-carbamimidoylphenylamino)-(2-fluoro-4,5-dimethoxyphenyl)methyl]-5-oxo-4,5-dihydro-[1,2,4]triazol-1-yl}-1H-pyrazole-4-carboxylic acid]
6.9 | CCOC(=O)c1cn[nH]c1-n1nc(C(Nc2ccc(C(=N)N)cc2)c2cc(OC)c(OC)cc2F)[nH]c1=O (stereo not drawn) [Example 157d, 5-{3-[(4-carbamimidoylphenylamino)-(2-fluoro-4,5-dimethoxyphenyl)methyl]-5-oxo-4,5-dihydro-[1,2,4]triazol-1-yl}-1H-pyrazole-4-carboxylic acid ethyl ester]
6.5 | CCOC(=O)c1cn[nH]c1-n1nc(C(Nc2ccc(C(=N)N)cc2)c2cc(OC)c3c(c2F)OCCO3)[nH]c1=O (stereo not drawn) [Example 175, 5-{3-[(4-carbamimidoylphenylamino)-(5-fluoro-8-methoxy-2,3-dihydrobenzo[1,4]dioxin-6-yl)methyl]-5-oxo-4,5-dihydro-[1,2,4]triazol-1-yl}-1H-pyrazole-4-carboxylic acid ethyl ester acetate]
